The results in this text go back to ChEMBL document CHEMBL1201862, “PubChem BioAssay data set” (2004).

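Assay format: 96-well plates, 48-hour exposure. GI50 marks 50% less growth.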 The source made the active and inactive calls. Rule as the data show it: active = GI50 up to about 1.1 µM and inactive = higher.

Among the test systems are 786-0; CCRF-CEM; COLO 205; EKVX; HCT-116; HCT-15; HT-29; MDA-MB-231; Malme-3M; NCI-H460; NCI/ADR-RES; OVCAR-5; OVCAR-8; RPMI-8226; RXF 393; SK-MEL-2; SK-MEL-5; SNB-19; TK-10; UACC-257.
Test in all cases: inhibition of tumour cell growth, NCI panel, 48 h

In the case of `O=[N+]([O-])c1cc(-[n+]2cc([O-])on2)ccc1Cl`, the GI50 in the assay on 786-0 is 21.3 µM (inactive); in the assay with CCRF-CEM it was 23.6 µM (inactive); with COLO 205 it was 27.7 µM (inactive); in the assay on EKVX, 19 µM (inactive); with HCT-116 it was 16.1 µM (inactive); in the assay with HCT-15 it was 20.7 µM. Further, the GI50 in the assay on HT-29 was 15.1 µM (inactive); in the assay with MDA-MB-231 it was 17.4 µM (inactive); with Malme-3M, 13.6 µM (inactive); with NCI-H460, 34.2 µM (inactive); in the assay with NCI/ADR-RES it was 18 µM (inactive); in the assay with OVCAR-5, 18.1 µM (inactive). In addition, the GI50 is 20.6 µM (inactive) with OVCAR-8; 24.3 µM (inactive) in the assay with RPMI-8226; 14.8 µM (inactive) with RXF 393; 21.5 µM (inactive) in the assay with SK-MEL-2; 10.2 µM (inactive) in the assay on SK-MEL-5; 14.2 µM (inactive) in the assay on SNB-19. In addition, the GI50 in the assay on TK-10 is 18.6 µM (inactive); in the assay with UACC-257, 13.8 µM (inactive).

With `CC(=N\N=C\c1ccccn1)/C(C)=N/N=C(C)/C(C)=N/N=C(C)/C(C)=N/N=C/c1ccccn1`, the GI50 in the assay on 786-0 was > 100 µM (inactive); with CCRF-CEM, 3.7 µM (inactive); in the assay with COLO 205, > 100 µM (inactive); with EKVX, > 100 µM (inactive); in the assay on HCT-116, > 100 µM (inactive); in the assay on HCT-15, greater than 100 µM. Besides, the GI50 in the assay with HT-29, in the assay with MDA-MB-231, in the assay on Malme-3M, in the assay with NCI-H460, in the assay with NCI/ADR-RES and in the assay on OVCAR-5 was > 100 µM (inactive) in each case. In addition, the GI50 in the assay with OVCAR-8, in the assay on RPMI-8226, in the assay on RXF 393, in the assay on SK-MEL-2, with SK-MEL-5 and in the assay on SNB-19 was > 100 µM (inactive) in each case. In addition, the GI50 in the assay on TK-10 and with UACC-257 was > 100 µM (inactive) throughout.

Regarding `CN(Cc1cnc2nc(N)nc(N)c2n1)c1ccc(C(=O)NC(CO)CCCO)cc1` (stereo not given), the GI50 is > 100 µM (inactive) in the assay with 786-0; > 100 µM (inactive) in the assay on CCRF-CEM; > 100 µM (inactive) in the assay with COLO 205; > 100 µM (inactive) in the assay on EKVX; > 100 µM (inactive) in the assay on HCT-116; greater than 100 µM in the assay with HCT-15. In addition, the GI50 with HT-29, in the assay on MDA-MB-231, in the assay with Malme-3M, with NCI-H460, in the assay with NCI/ADR-RES and in the assay with OVCAR-5 was > 100 µM (inactive) each time. Besides, the GI50 in the assay on OVCAR-8, with RPMI-8226, in the assay on RXF 393, with SK-MEL-2, in the assay on SK-MEL-5 and in the assay on SNB-19 was > 100 µM (inactive) throughout. The GI50 in the assay with TK-10 and in the assay with UACC-257 was > 100 µM (inactive) each time.

As to `CC1(C)C(=O)/C(=C/c2ccccc2)C(C)(C)C1(C)C`, the GI50 was > 81.8 µM (inactive) in the assay on 786-0; 28.4 µM (inactive) in the assay on CCRF-CEM; > 100 µM (inactive) with COLO 205; > 58.5 µM (inactive) in the assay on EKVX; 38.5 µM (inactive) with HCT-116; 54.1 µM with HCT-15. The GI50 with HT-29 is 40.1 µM (inactive); with MDA-MB-231, > 93.8 µM (inactive); with Malme-3M, > 71.3 µM (inactive); in the assay with NCI-H460 it was 62.7 µM (inactive); in the assay on NCI/ADR-RES it was > 90.6 µM (inactive); in the assay on OVCAR-5, > 100 µM (inactive). The GI50 in the assay on OVCAR-8 was > 100 µM (inactive); with RPMI-8226, 31.4 µM (inactive); in the assay with RXF 393, > 100 µM (inactive); in the assay with SK-MEL-2, > 43.5 µM (inactive); in the assay on SK-MEL-5, 55 µM (inactive); in the assay with SNB-19, > 100 µM (inactive). Besides, the GI50 is 46.6 µM (inactive) in the assay with TK-10 and > 100 µM (inactive) with UACC-257.

`OCC1OC(n2cnc3c(/C=C(/O)c4ccccc4)ncnc32)C(O)C1O` (stereo not given): the GI50 in the assay with 786-0 was 2.94 µM (inactive); in the assay with CCRF-CEM, 0.61 µM (active); in the assay with COLO 205 it was 0.944 µM (active); in the assay with EKVX, 19.1 µM (inactive); in the assay on HCT-116 it was 1.55 µM (inactive); in the assay on HCT-15, 1.05 µM. The GI50 in the assay with HT-29 is 3.1 µM (inactive); in the assay on MDA-MB-231, 1.64 µM (inactive); in the assay with Malme-3M, 5.33 µM (inactive); in the assay on NCI-H460, 0.594 µM (active); in the assay with NCI/ADR-RES it was 2.11 µM (inactive); in the assay on OVCAR-5, 3.98 µM (inactive). Further, the GI50 is 2.17 µM (inactive) with OVCAR-8; 1.38 µM (inactive) with RPMI-8226; 4.12 µM (inactive) in the assay with RXF 393; 1.01 µM (active) with SK-MEL-2; 5.65 µM (inactive) in the assay with SK-MEL-5; 12.4 µM (inactive) in the assay with SNB-19. The GI50 in the assay with TK-10 was 0.516 µM (active); in the assay on UACC-257, 3.89 µM (inactive).

Consider `COc1ccc(C2OC(=O)c3ccc4ccccc4c32)c(C)c1` (stereo not given), for which the GI50 with 786-0 is 12.7 µM (inactive); with CCRF-CEM, 22.4 µM (inactive); with COLO 205, 4.36 µM (inactive); in the assay on EKVX, 18.8 µM (inactive); in the assay with HCT-116, 4.93 µM (inactive); in the assay on HCT-15 it was 4.1 µM. Besides, the GI50 is 3.78 µM (inactive) in the assay with HT-29; 6.12 µM (inactive) in the assay with MDA-MB-231; 8.18 µM (inactive) with Malme-3M; 4.18 µM (inactive) in the assay with NCI-H460; 2.37 µM (inactive) in the assay on NCI/ADR-RES; 19.9 µM (inactive) in the assay with OVCAR-5. Besides, the GI50 was 14.2 µM (inactive) in the assay on OVCAR-8; 11.1 µM (inactive) with RPMI-8226; 5.33 µM (inactive) in the assay on RXF 393; 2.1 µM (inactive) in the assay on SK-MEL-2; 3.54 µM (inactive) in the assay on SK-MEL-5; 14.7 µM (inactive) in the assay on SNB-19. The GI50 with TK-10 was 15.2 µM (inactive); in the assay on UACC-257, 27.5 µM (inactive).

`O=C(O)C1C2CC3C(OC(=O)C31)C2Br` (stereo not given): the GI50 with 786-0 is > 100 µM (inactive); in the assay with CCRF-CEM, > 100 µM (inactive); with COLO 205 it was > 100 µM (inactive); with EKVX, > 100 µM (inactive); in the assay with HCT-116, > 100 µM (inactive); in the assay with HCT-15 it was greater than 100 µM. Further, the GI50 in the assay on HT-29, in the assay with MDA-MB-231, in the assay on Malme-3M, in the assay on NCI-H460, in the assay on NCI/ADR-RES and in the assay with OVCAR-5 was > 100 µM (inactive) throughout. Further, the GI50 with OVCAR-8, with RPMI-8226, in the assay on RXF 393, in the assay with SK-MEL-2, in the assay with SK-MEL-5 and in the assay on SNB-19 was > 100 µM (inactive) each time. The GI50 in the assay with TK-10 and in the assay with UACC-257 was > 100 µM (inactive) each time.

As to `O=C(O)/C(Cc1ccc([N+](=O)[O-])cc1)=N\O`, the GI50 with 786-0 is > 100 µM (inactive); with CCRF-CEM, 73.6 µM (inactive); in the assay on COLO 205 it was > 100 µM (inactive); with EKVX it was 39.1 µM (inactive); with HCT-116 it was > 100 µM (inactive); in the assay on HCT-15, greater than 100 µM. The GI50 in the assay on HT-29, in the assay on MDA-MB-231, with Malme-3M, in the assay with NCI-H460, in the assay with NCI/ADR-RES and in the assay with OVCAR-5 was > 100 µM (inactive) each time. Moreover, the GI50 in the assay with OVCAR-8, with RPMI-8226, with RXF 393, with SK-MEL-2, in the assay with SK-MEL-5 and in the assay with SNB-19 was > 100 µM (inactive) in each case. The GI50 with TK-10 and with UACC-257 was > 100 µM (inactive) throughout.

With `Cn1c(=S)sc2nc3ccccc3n2c1=S`, the GI50 was 12.7 µM (inactive) in the assay on 786-0; 3.52 µM (inactive) in the assay with CCRF-CEM; 9.51 µM (inactive) in the assay with COLO 205; 17.3 µM (inactive) with EKVX; 2.49 µM (inactive) in the assay with HCT-116; 13.2 µM in the assay on HCT-15. Further, the GI50 in the assay with HT-29 is 5.81 µM (inactive); in the assay with MDA-MB-231 it was 19.3 µM (inactive); with Malme-3M it was 13.9 µM (inactive); in the assay on NCI-H460 it was 9.86 µM (inactive); with NCI/ADR-RES it was 13.4 µM (inactive); with OVCAR-5 it was 15.3 µM (inactive). The GI50 in the assay with OVCAR-8 was 14.3 µM (inactive); in the assay with RPMI-8226, 3.78 µM (inactive); in the assay with RXF 393, 10.9 µM (inactive); with SK-MEL-2, 51.1 µM (inactive); with SK-MEL-5 it was 12.2 µM (inactive); in the assay on SNB-19, 13.7 µM (inactive). The results for the GI50 with TK-10 and with UACC-257 were 21.2 µM (inactive) and 12.3 µM (inactive), respectively.

As to `CC(C)C1=Cc2ccc3c(c2C(=O)C1=O)CCCC3`, the GI50 is 2.43 µM (inactive) with 786-0; 0.65 µM (active) in the assay on CCRF-CEM; 11.4 µM (inactive) in the assay with COLO 205; 9.14 µM (inactive) in the assay with EKVX; 1.95 µM (inactive) with HCT-116; 3.08 µM with HCT-15. In addition, the GI50 is 9.06 µM (inactive) with HT-29; 16 µM (inactive) in the assay on MDA-MB-231; 2.58 µM (inactive) in the assay with Malme-3M; 10.6 µM (inactive) in the assay with NCI-H460; 21.4 µM (inactive) with NCI/ADR-RES; 13.9 µM (inactive) in the assay on OVCAR-5. Moreover, the GI50 was 5.64 µM (inactive) in the assay on OVCAR-8; 2.12 µM (inactive) in the assay on RPMI-8226; 4.32 µM (inactive) in the assay with RXF 393; 7.35 µM (inactive) in the assay on SK-MEL-2; 7.1 µM (inactive) with SK-MEL-5; 17.9 µM (inactive) in the assay with SNB-19. For the same compound, the GI50 in the assay with TK-10 is 2.52 µM (inactive); in the assay on UACC-257, 3.47 µM (inactive).
